Data reported in patent publication US20220143210A1, “HYDROGEL COMPOSITIONS AND METHODS FOR TREATEMENT OF MALIGNANCIES” (Fred Hutchinson Cancer Research Center, priority 2019, published 2022).
“Also recorded” adds a separate entry of the source.

Key:
[1] = test system: GFP+ HGG cells in a 1:1 co-culture with murine macrophages; assay type: cell-based, human PDX tumor cells, murine macrophages (C57/B6 mouse); settings: single agent; macrophage species not specified
Description: All chemokines were purchased from Sigma-Aldrich. LEAF hCD47 mAb was purchased from eBioscience (cat number, B6H12 clone). Primary murine macrophages were derived from bone marrow of a C57/B6 mouse. Bone marrow derived mononuclear progenitors were cultured in RPMI with CSF-1 for 3 days before freezing/use in assays. Patient-derived xenograft (PDX) were obtained from autopsy or biopsy. PDX lines were cultured in Neuralcult Serum Free (Stem cell tech) with Neuralcult supplement (cat no), 100 U ml-1 PenStrep, Glutamax, EGF and FGF. Cells were grown adherent on tissue-culture treated plates after at least 2 hours of Laminin coating (Sigma-aldrich) in an incubator at 37° C. in 5% CO2. All PDX lines were transduced with H2b-GFP and Luciferase to assist in cell counting and tumor size visualization via IVIS. Xenograft tumors were established in the cortex of female athymic mice nu/nu (Harlan) mice. Tumors were allowed to grow to an IVIS threshold before study enrollment. All mouse studies were carried out following protocols approved by the IACUC at FHCRC (protocol 1457) and complied with all relevant ethical regulations.
Phagocytosis assays were performed using the Basic Analyzer software on Essen Bio's Incucyte Zoom 2016 and S3. […] Using the aforementioned definitions, the Incucyte calculated the reduction of GFP+ nuclei in the wells over time in response to those factors. […]

[2] = test system: GFP+ PDX brain tumor cells (HGG); assay: In vitro chemotaxis (transwell, Incucyte) assay; assay type: cell-based, human; settings: for chemotaxis / migration of PDX brain tumor cells: chemokine gradient, transwell
Description: Cell migration assays were performed using the Chemotaxis software on Essen Bio's Incucyte Zoom 2016 and S3. Specialized 96 well transwell plates were supplied by Essen Bio. GFP+ PDX cells were cultured in the aforementioned Neuralcult media without EGF/FGF supplementation. The Incucyte software definitions were trained to identify GFP+ rounded objects spanning the range of healthy nuclei found in my cultures.
It has been hypothesized that it is possible to exploit the migratory behavior of high grade brain tumors by employing chemokine gradients to attract them out of inoperable locations and into a location within the brain that maximizes their exposure to opsonin and macrophages. […] Flow analysis confirms the expression of the requisite chemokine receptors on the HGG line used in our chemotaxis assay, as shown in FIGS. 2A-2C.

[3] = administered intravenously, clinically; cited from earlier work

Row | Molecule | effects on the tumor cells in co-culture [1] | chemotaxis / migration of PDX brain tumor cells [2] | further results
1 | CCOCc1nc2c(N)nc3ccccc3c2n1CC(C)(C)O [R848, reference compound] | mild effects |  | 
2 | IFNg: M1-polarizing agent | mild effects |  | 
3 | CXCL8: classical immune cell chemokine, purchased from Sigma-Aldrich |  | induced varying degrees of chemotaxis; also recorded: effective at eliciting migration | 
4 | CXCL12: classical immune cell chemokine, purchased from Sigma-Aldrich |  | induced varying degrees of chemotaxis; also recorded: effective at eliciting migration | 
5 | CCL2: classical immune cell chemokine, purchased from Sigma-Aldrich |  | induced varying degrees of chemotaxis; also recorded: effective at eliciting chemotaxis; also recorded: effective at eliciting migration | relative chemotactic potency across PDX lines ([2]; across all lines tested): most potency across all lines tested
6 | IFNg: M1-polarizing agent (protein, UniProt P01579 24-161, looked up) Interferon gamma: QDPYVKEAENLKKYFNAGHSDVADNGTLFLGILKNWKEESDRKIMQSQIVSFYFKLFKNFKDDQSIQKSVETIKEDMNVKFFNSNKKKRDDFEKLTNYSVTDLNVQRKAIHELIQVMAELSPAAKTGKRKRSQMLFRG |  |  | systemic toxicity [3]: dramatic systemic toxicity
